# Test results as given in patent US9908895B2, “Tricyclic fused thiophene derivatives as JAK inhibitors” (Incyte Corporation, priority 2012, dated 2018).
# Test system: human JAK1
# Test: In vitro JAK kinase assay (HTRF), JAK1
# Format: biochemical
# Details: ratio of JAK2 IC50 to JAK1 IC50 at 1 mM ATP
# Protocol: Compounds herein were tested for inhibitory activity of JAK targets according to the following in vitro assay described in Park et al., Analytical Biochemistry 1999, 269, 94-104. The catalytic domains of human JAK1 (a.a. 837-1142), JAK2 (a.a. 828-1132) and JAK3 (a.a. 781-1124) were expressed using baculovirus in insect cells and purified. The catalytic activity of JAK1, JAK2 or JAK3 was assayed by measuring the phosphorylation of a biotinylated peptide. The phosphorylated peptide was detected by homogenous time resolved fluorescence (HTRF). IC50s of compounds were measured for each kinase in the 40 μL reactions that contain the enzyme, ATP and 500 nM peptide in 50 mM Tris (pH 7.8) buffer with 100 mM NaCl, 5 mM DTT, and 0.1 mg/mL (0.01%) BSA. For the 1 mM IC50 measurements, ATP concentration in the reactions was 1 mM. Reactions were carried out at room temperature for 1 hour and then stopped with 20 μL 45 mM EDTA, 300 nM SA-APC, 6 nM Eu-Py20 in assay buffer (Perkin Elmer, Boston, Mass.). Binding to the Europium labeled antibody took place for 40 minutes and HTRF signal was measured on a PHERA star plate reader (BMG, Cary, N.C.). The Example compounds were each tested in the Example A assay (see Table 1 for data for the compounds of the examples as tested by the assay of Example A at 1 mM ATP).
row,Structure (SMILES),JAK2/JAK1
1,"CC(C)c1nc2cnc3ccsc3c2n1[C@H]1CC[C@H](CC#N)OC1 [Example 42, [(2R,5S)-5-(2-Isopropyl-1H-imidazo[4,5-d]thieno[3,2-b]pyridin-1-yl)tetrahydro-2H-pyran-2-yl]acetonitrile]",>10
2,"N#CC[C@H]1CC[C@H](n2c(C3CC3)nc3cnc4ccsc4c32)CO1 [Example 43, [(2R,5S)-5-(2-Cyclopropyl-1H-imidazo[4,5-d]thieno[3,2-b]pyridin-1-yl)tetrahydro-2H-pyran-2-yl]acetonitrile]",>10
3,"C[C@@H](O)c1nc2cnc3ccsc3c2n1[C@@H]1CC[C@@H](CC#N)OC1 [Example 44, ((2S,5R)-5-{2-[(1R)-1-Hydroxyethyl]-1H-imidazo[4,5-d]thieno[3,2-b]pyridin-1-yl}tetrahydro-2H-pyran-2-yl)acetonitrile]",>10
4,"C[C@H](O)c1nc2cnc3ccsc3c2n1[C@H]1CC[C@H](CC#N)OC1 [Example 45, ((2R,5S)-5-{2-[(1S)-1-Hydroxyethyl]-1H-imidazo[4,5-d]thieno[3,2-b]pyridin-1-yl}tetrahydro-2H-pyran-2-yl)acetonitrile]",>10
5,"CCc1nc2cnc3ccsc3c2n1[C@H]1CC[C@H](CC#N)CC1 [Example 47, [trans-4-(2-Ethyl-1H-imidazo[4,5-d]thieno[3,2-b]pyridin-1-yl)cyclohexyl]acetonitrile]",>10
6,"Cc1nc2cnc3ccsc3c2n1[C@H]1CC[C@H](CC#N)CC1 [Example 48, [trans-4-(2-Methyl-1H-imidazo[4,5-d]thieno[3,2-b]pyridin-1-yl)cyclohexyl]acetonitrile]",>7
7,"C[C@@H](O)c1nc2cnc3ccsc3c2n1[C@H]1CC[C@@H](CC#N)C1.O=C(O)C(F)(F)F [Example 49, ((1R,3S)-3-{2-[(1R)-1-Hydroxyethyl]-1H-imidazo[4,5-d]thieno[3,2-b]pyridin-1-yl}cyclopentyl)acetonitrile trifluoroacetate]",>10
8,"CCOC(=O)N1CCC[C@H](n2c([C@@H](C)O)nc3cnc4ccsc4c32)C1 [Example 50, Ethyl(3S)-3-{2-[(1R)-1-hydroxyethyl]-1H-imidazo[4,5-d]thieno[3,2-b]pyridin-1-yl}piperidine-1-carboxylate]",>10
9,"C[C@@H](O)c1nc2cnc3ccsc3c2n1[C@H]1CCCN(C(=O)CC#N)C1.O=C(O)C(F)(F)F [Example 51, 3-((3S)-3-{2-[(1R)-1-Hydroxyethyl]-1H-imidazo[4,5-d]thieno[3,2-b]pyridin-1-yl}piperidin-1-yl)-3-oxopropanenitrile trifluoroacetate]",>10
10,"C[C@@H](O)c1nc2cnc3ccsc3c2n1[C@H]1CCCN(C(=O)CCC(F)(F)F)C1 [Example 52, (1R)-1-{1-[(3S)-1-(4,4,4-Trifluorobutanoyl)piperidin-3-yl]-1H-imidazo[4,5-d]thieno[3,2-b]pyridin-2-yl}ethanol]",>10
11,"C[C@@H](O)c1nc2cnc3ccsc3c2n1[C@H]1CCCN(C(=O)CCc2cn[nH]c2)C1 [Example 53, (1R)-1-(1-{(3S)-1-[3-(1H-Pyrazol-4-yl)propanoyl]piperidin-3-yl}-1H-imidazo[4,5-d]thieno[3,2-b]pyridin-2-yl)ethanol]",>10
12,"C[C@@H](O)c1nc2cnc3ccsc3c2n1[C@H]1CCCN(C(=O)CCc2cccnc2)C1 [Example 54, (1R)-1-{1-[(3S)-1-(3-Pyridin-3-ylpropanoyl)piperidin-3-yl]-1H-imidazo[4,5-d]thieno[3,2-b]pyridin-2-yl}ethanol]",>10
13,"CC(CC(=O)N1CCC[C@H](n2c([C@@H](C)O)nc3cnc4ccsc4c32)C1)c1ccccc1 (stereo partly drawn) [Example 55, (1R)-1-{1-[(3S)-1-(3-Phenylbutanoyl)piperidin-3-yl]-1H-imidazo[4,5-d]thieno[3,2-b]pyridin-2-yl}ethanol]",>10
14,"C[C@@H](O)c1nc2cnc3ccsc3c2n1[C@H]1CCCN(CCC#N)C1 [Example 56, 3-((3S)-3-{2-[(1R)-1-Hydroxyethyl]-1H-imidazo[4,5-d]thieno[3,2-b]pyridin-1-yl}piperidin-1-yl)propanenitrile]",>10
